Laboratory results as given in patent US8940719B2, “Lithocholic acid analogues that inhibit sialyltransferase” (Academia Sinica, priority 2006, dated 2015).
Read-outs that look alike come from different tables or passages of the source.

Tests used:
[1] = biological target: Rat liver α-2,3-ST (Rattus norvegicus (Rat), UniProt Q02734); assay: α-2,3-ST inhibition assay (IC50), RP-HPLC of sialylated disaccharide product; format: biochemical; conditions: for fold potency increase over 19: vs compound 19
Chain of Rat liver α-2,3-ST (Q02734 whole entry): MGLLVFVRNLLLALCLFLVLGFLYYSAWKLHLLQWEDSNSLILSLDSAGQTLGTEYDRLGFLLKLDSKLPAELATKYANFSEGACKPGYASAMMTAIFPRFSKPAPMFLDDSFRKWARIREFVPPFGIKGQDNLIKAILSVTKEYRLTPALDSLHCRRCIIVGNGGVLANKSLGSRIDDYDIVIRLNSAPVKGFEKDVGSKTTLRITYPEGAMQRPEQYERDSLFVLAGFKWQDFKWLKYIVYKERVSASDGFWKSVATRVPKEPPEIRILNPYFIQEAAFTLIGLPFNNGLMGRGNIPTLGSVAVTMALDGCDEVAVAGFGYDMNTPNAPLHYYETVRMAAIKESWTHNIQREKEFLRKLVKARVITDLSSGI
Protocol: Compound synthesis was carried out with the following materials according the following general procedures. All chemicals and buffers were purchased from Sigma, Aldrich, or Acros Organics; and all amino acids were purchased from Advanced Chemtech. CMP-Neu5Ac was synthesized starting with sialic acid (Traving & Schauer, Cell. Mol. Life Sci., 1998, 54:1330; Schwarzkopf et al., Proc. Natl. Acad. Sci. USA, 2002, 99:5267). Synthesis of lactose acceptor was achieved as described in Harduin-Lepers et al., Biochimie, 2001, 83:727. Rat liver α-2,3-ST was obtained from CalBiochem at a concentration of 3.7 mU/μL, stored at −80° C., and used within one week. Melting points (m.p.) were recorded with a capillary melting point apparatus (Electrothermal MEL-TEMP); FT-IR spectra were recorded with Perkin Elmer FT-IR Spectrometer (Paragon 1000) in KBr pellets; ^1H and ^13C NMR spectra were recorded with Bruker AMX400 or 500 MHz instruments. Proton chemical shifts (δ) are reported in parts per million (ppm) relative to the methine singlet at 7.24 ppm for the residual CHCl3 in the deuteriochloroform, or the methyl pentet at 3.30 ppm for the residual CHD2OD in the methanol-d4. Carbon chemical shifts are reported in ppm relative to the internal ^13C signals in CDCl3 (77.0 ppm) and CD3OD-d4 (49.0 ppm). Mass spectra were obtained with a FAB JMS-700 double focusing mass spectrometer (JEOL, Tokyo, Japan), MALDI Voyager DE-PRO (Applied Biosystem Houston, USA), and ESI Finnigan LCQ mass spectrometer (Thermo Finnigan, San Jose, Calif., United States) in negative mode. […] The separation procedure was performed using H2O/0.1% trifluoroacetic acid (TFA) (A) and CH3CN/0.05% TFA (B) as eluents.
Each compound was tested for α-2,3-ST inhibition using CMP-Neu5Ac as a substrate and a modified disaccharide with a 4,5-dimethoxy-2-nitrobenzyl group as a UV-labeled acceptor. Specifically, inhibition assays were performed in triplicate in reaction solution containing 200 mM MES buffer, 100 mM sodium chloride, 0.5 mM disodium-EDTA, 0.01% Triton X-100, 20 μM modified disaccharide, 1.4 mU α-2,3-ST and inhibitor (in dimethyl sulfoxide) in a total volume of 55. Reactions were incubated at 37° C. for 10 minutes at which point 1 mM CMP-Neu5Ac (to a final concentration 3 μM) was added. The solution was then incubated at 37° C. until a detectable amount of product was produced. The reaction was terminated by quenching the solution mixture with heat at 100° C. for 5 minutes. Enzyme activity was determined by monitoring the quantity of sialylated disaccharide product produced over time at 348 nm by RP-HPLC (Supelco Discovery® HS C18, 5 μm, 4.6 mm×25 cm).

[2] = test system: CL1-5 lung cancer cells; assay: Cytotoxicity / cell growth, trypan blue exclusion; format: cell-based; conditions: 5 μM or 10 μM, 48 hours, FBS-free media
Protocol: To determine the effect of the synthesized membrane-permeable α-2,3-ST inhibitors disclosed in Example 1 on cellular processes, in vitro cytotoxicity and adhesion assays were performed on the highly metastatic lung cancer cell line CL1-5. CL1-5 cells were plated at 1×10^6 cells per 60 mm culture dish in DMEM containing 10% fetal bovine serum (FBS) in 5% CO2. The following day the media was replaced with FBS-free media containing inhibitors at 5 μM or 10 μM concentration in DMSO. Controls cells were treated with 0.1% DMSO-containing medium without inhibitor. Cell number and viability were determined 48 hours later by trypan blue exclusion. Treatment with three α-2,3-ST inhibitors, N-Pentyonic (compound 21), Lith-Triethyl-de (compound 20), and Lith-o-Asp (compound 13), inhibited CL1-5 cell growth by between 10-20% compared to control (FIG. 2A).

[3] = α-2,3-ST, CMP-Neu5Ac substrate, triplicate, read-out: IC50

SMILES: C[C@H](CCC(=O)O)[C@H]1CC[C@H]2[C@@H]3CC[C@@H]4C[C@H](O)CC[C@]4(C)[C@H]3CC[C@]12C [lithocholic acid]
- IC50 ([1]; steroid screen for α-2,3-ST inhibition, unit mM, read-out: IC50 value): 0.021 mM

SMILES: C[C@H](CCC(=O)O)C1CC[C@H]2C3CC[C@@H]4CC(=O)CC[C@]4(C)C3CC[C@]12C (stereo partly drawn) [Compound 11, (R)-4-((5R,10S,13R,14S)-10,13-dimethyl-3-oxo-hexadecahydro-1H-cyclopenta[a]phenanthren-17-yl)pentanoic acid]
- fold decrease in potency relative to lithocholic acid ([1]; vs lithocholic acid): 7 fold
- IC50 [1, 3]: 0.139 mM

SMILES: C[C@H](CCC(=O)NCC(=O)O)C1CC[C@H]2C3CC[C@@H]4C[C@H](O)CC[C@]4(C)C3CC[C@]12C (stereo partly drawn) [Compound 9, 2-((R)-4-((3R,5R,10S,13R,14S)-3-hydroxy-10,13-dimethyl-hexadecahydro-1H-cyclopenta[a]phenanthren-17-yl)pentanamido)acetic acid]
- IC50 [1, 3]: 0.025 mM

SMILES: C[C@H](CCC(=O)O)C1CC[C@H]2C3CC[C@@H]4C[C@H](OC(=O)[C@H](N)CC(=O)O)CC[C@]4(C)C3CC[C@]12C (stereo partly drawn) [Compound 17, (R)-4-((3R,5R,10S,13R,14S)-3-((R)-2-amino-3-carboxypropanoyloxy)-10,13-dimethyl-hexadecahydro-1H-cyclopenta[a]phenanthren-17-yl)pentanoic acid]
- fold improvement in potency over 13 ([1]; vs compound 13): 2 fold
- IC50 [1, 3]: 0.006 mM

SMILES: C[C@H](CCC(=O)N[C@@H](CC(=O)O)C(=O)O)C1CC[C@H]2C3CC[C@@H]4C[C@H](OC(=O)CCC(=O)O)CC[C@]4(C)C3CC[C@]12C (stereo partly drawn) [Compound 16, (S)-2-((R)-4-((3R,5R,10S,13R,14S)-3-(3-carboxypropanoyloxy)-10,13-dimethyl-hexadecahydro-1H-cyclopenta[a]phenanthren-17-yl)pentanamido)succinic acid]
- IC50 [1, 3]: 0.018 mM

SMILES: CCOP(=O)(OCC)C(Cc1cn(CCC[C@@H](C)C2CC[C@H]3C4CC[C@@H]5C[C@H](O)CC[C@]5(C)C4CC[C@]23C)nn1)C(=O)O (stereo partly drawn) [Compound 20, 2-(diethoxyphosphoryl)-3-(1-((R)-4-((3R,5R,10S,13R,14S)-3-hydroxy-10,13-dimethyl-hexadecahydro-1H-cyclopenta[a]phenanthren-17-yl)pentyl)-1H-1,2,3-triazol-4-yl)propanoic acid]
- fold potency increase over 19 [1]: 8-12 fold
- IC50 [1, 3]: 0.007 mM
- inhibition of CL1-5 cell growth compared to control [2]: 10-20%

SMILES: C[C@H](CCC(=O)O)C1CC[C@H]2C3CC[C@@H]4C[C@H](OC(=O)CCC(=O)O)CC[C@]4(C)C3CC[C@]12C (stereo partly drawn) [Compound 12, (R)-4-((3R,5R,10S,13R,14S)-3-(3-carboxypropanoyloxy)-10,13-dimethyl-hexadecahydro-1H-cyclopenta[a]phenanthren-17-yl)pentanoic acid]
- fold potency over lithocholic acid ([1]; vs lithocholic acid): 2 fold
- IC50 [1, 3]: 0.012 mM

SMILES: C[C@H](CCC(=O)OC(C)(C)C)C1CC[C@H]2C3CC[C@@H]4C[C@H](OC(=O)CCC(=O)O)CC[C@]4(C)C3CC[C@]12C (stereo partly drawn) [Compound 14, 4-((3R,5R,10S,13R,14S)-17-((R)-5-tert-butoxy-5-oxopentan-2-yl)-10,13-dimethyl-hexadecahydro-1H-cyclopenta[a]phenanthren-3-yloxy)-4-oxobutanoic acid]
- IC50 [1, 3]: 0.013 mM

SMILES: C[C@H](CCC(=O)N[C@@H](CC(=O)O)C(=O)O)C1CC[C@H]2C3CC[C@@H]4C[C@H](O)CC[C@]4(C)C3CC[C@]12C (stereo partly drawn) [Compound 10, (S)-2-((R)-4-((3R,5R,10S,13R,14S)-3-hydroxy-10,13-dimethyl-hexadecahydro-1H-cyclopenta[a]phenanthren-17-yl)pentanamido)succinic acid]
- IC50 [1, 3]: 0.016 mM

SMILES: C[C@H](CCCOP(=O)(Oc1ccccc1)Oc1ccccc1)C1CC[C@H]2C3CC[C@@H]4C[C@H](O)CC[C@]4(C)C3CC[C@]12C (stereo partly drawn) [Compound 8, (R)-4-((3R,5R,10S,13R,14S)-3-hydroxy-10,13-dimethyl-hexadecahydro-1H-cyclopenta[a]phenanthren-17-yl)pentyl diphenyl phosphonate]
- fold decrease in potency relative to lithocholic acid ([1]; vs lithocholic acid): 5 to 17 fold
- IC50 [1, 3]: > 0.1 mM

SMILES: C[C@H](CCCn1cc(CCO)nn1)C1CC[C@H]2C3CC[C@@H]4C[C@H](O)CC[C@]4(C)C3CC[C@]12C (stereo partly drawn) [Compound 18, (3R,5R,10S,13R,14S)-17-((R)-5-(4-(2-hydroxyethyl)-1H-1,2,3-triazol-1-yl)pentan-2-yl)-10,13-dimethyl-hexadecahydro-1H-cyclopenta[a]phenanthren-3-ol]
- fold less potent than 21 ([1]; vs compound 21): at least 10 fold
- fold less potent than 22 ([1]; vs compound 22): ≥ 20 fold
- IC50 [1, 3]: > 0.1 mM

SMILES: C[C@H](CCC(=O)NCC(=O)O)C1CC[C@H]2C3CC[C@@H]4C[C@H](OC(=O)CCC(=O)O)CC[C@]4(C)C3CC[C@]12C (stereo partly drawn) [Compound 15, 4-((3R,5R,10S,13R,14S)-17-((R)-5-(carboxymethylamino)-5-oxopentan-2-yl)-10,13-dimethyl-hexadecahydro-1H-cyclopenta[a]phenanthren-3-yloxy)-4-oxobutanoic acid]
- IC50 [1, 3]: 0.022 mM

SMILES: C[C@H](CCCO)C1CC[C@H]2C3CC[C@@H]4C[C@H](O)CC[C@]4(C)C3CC[C@]12C (stereo partly drawn) [Compound 7, (3R,5R,10S,13R,14S)-17-((R)-5-hydroxypentan-2-yl)-10,13-dimethyl-hexadecahydro-1H-cyclopenta[a]phenanthren-3-ol]
- fold decrease in potency relative to lithocholic acid ([1]; vs lithocholic acid): 5 to 17 fold
- IC50 [1, 3]: 0.351 mM

SMILES: C[C@H](CCCn1cc(CCC(=O)O)nn1)C1CC[C@H]2C3CC[C@@H]4C[C@H](O)CC[C@]4(C)C3CC[C@]12C (stereo partly drawn) [Compound 21, 3-(1-((R)-4-((3R,5R,10S,13R,14S)-3-hydroxy-10,13-dimethyl-hexadecahydro-1H-cyclopenta[a]phenanthren-17-yl)pentyl)-1H-1,2,3-triazol-4-yl)propanoic acid]
- fold potency increase over 19 [1]: 8-12 fold
- IC50 [1, 3]: 0.01 mM
- inhibition of CL1-5 cell growth compared to control [2]: 10-20%

SMILES: C[C@H](CCCn1cc(CC(N)C(=O)O)nn1)C1CC[C@H]2C3CC[C@@H]4C[C@H](O)CC[C@]4(C)C3CC[C@]12C (stereo partly drawn) [Compound 19, 2-amino-3-(1-((R)-4-((3R,5R,10S,13R,14S)-3-hydroxy-10,13-dimethyl-hexadecahydro-1H-cyclopenta[a]phenanthren-17-yl)pentyl)-1H-1,2,3-triazol-4-yl)propanoic acid]
- IC50 [1, 3]: 0.083 mM
